Test results as given in the Kinase Knowledgebase extract (Sharma et al. 2016).

How the values were obtained:
CDK2 [1] = target: CDK2 (UniProt P24941); experiment: Enzyme Assay
CDK2 [2] = target: CDK2 (UniProt P24941); experiment: Enzyme Assay; remark: listed apart in the source

| SMILES | IC50 (CDK2 [1]) [µM] | IC50 (CDK2 [2]) [µM] |
| --- | --- | --- |
| C[N+]1([O-])CCC(NC(=O)c2n[nH]cc2NC(=O)c2c(F)cccc2F)CC1 (stereo unspecified) | < 20 |  |
| CN1CCN(c2ccc(CNC(=O)c3n[nH]cc3-c3ccccc3)cc2)CC1 |  | < 750 |
| O=C(N[C@@H]1CCNC1)c1n[nH]cc1NC(=O)c1c(F)cccc1F | < 20 |  |
| CC(C)(C)NC(=O)Nc1c[nH]nc1C(=O)NCC1CC1 | < 20 |  |
| CC(C)(C)C1CCC(NC(=O)c2n[nH]cc2NC(=O)c2ccc(Cl)cc2)CC1 (stereo unspecified) | < 750 |  |
| CN1CCC(C(=O)Nc2c[nH]nc2C(=O)NCC2CC2)CC1 | < 20 |  |
| COc1cccc(F)c1C(=O)Nc1c[nH]nc1C(=O)NC1CCC(C(C)(C)C)CC1 (stereo unspecified) | < 20 |  |
| COc1cccc(F)c1C(=O)Nc1c[nH]nc1C(=O)NC1CCN(C(=O)OC(C)(C)C)CC1 | < 20 |  |
| O=C(N[C@H]1CC[C@H](O)CC1)c1n[nH]cc1NC(=O)c1c(F)cccc1F | < 20 |  |
| Cc1ccc(C)n1-c1c[nH]nc1C(=O)Nc1ccc(F)cc1 |  | < 750 |
| CC(C)(C)N1CCC(NC(=O)c2n[nH]cc2NC(=O)c2c(F)cccc2F)CC1 | < 20 |  |
| O=C(NC1CCN(c2ccccn2)CC1)c1n[nH]cc1NC(=O)c1c(F)cccc1F | < 20 |  |
| O=C(NCc1c(Cl)cccc1Cl)c1n[nH]cc1NC(=O)c1c(F)cccc1F |  | < 750 |
| NC(=O)c1n[nH]cc1-c1ccccc1 |  | < 750 |
| O=C(Nc1ccccc1)c1n[nH]cc1-c1cccc(CO)c1 |  | < 20 |
| Cn1cc(N)nc1C(=O)Nc1c[nH]nc1C(=O)Nc1ccc(F)cc1 |  | < 20 |
| O=C(Nc1ccccn1)c1n[nH]cc1NC(=O)c1c(F)cccc1F |  | < 20 |
| O=C(CCN1CCCCC1)Nc1c[nH]nc1C(=O)Nc1ccc(F)cc1 |  | < 20 |
| CN1CCC(Oc2ccc(F)cc2NC(=O)c2n[nH]cc2NC(=O)c2c(F)cccc2F)CC1 |  | < 20 |
| O=C(Nc1c[nH]nc1C(=O)Nc1ccc(F)cc1)c1ccco1 |  | < 20 |
| CCC(CC)Nc1c[nH]nc1C(=O)Nc1ccc(F)cc1 |  | < 20 |
| O=C(CCO)Nc1c[nH]nc1C(=O)Nc1ccc(F)cc1 |  | < 20 |
| COc1ccc(NC(=O)c2n[nH]cc2-c2ccccc2)cn1 |  | < 20 |

| SMILES | IC50 (CDK2 [1]) [µM] | IC50 (CDK2 [2]) [µM] |
| --- | --- | --- |
| O=C(Nc1ccc(F)cc1)c1n[nH]cc1NC(=O)c1c[nH]c2ccccc12 |  | < 20 |
| O=C(Nc1c[nH]nc1C(=O)Nc1ccc(F)cc1)c1ccccn1 |  | < 20 |
| Cc1nc[nH]c1-c1c[nH]nc1C(=O)Nc1ccc(F)cc1 |  | < 20 |
| CN1CCN(CCC(=O)Nc2c[nH]nc2C(=O)Nc2ccc(F)cc2)CC1 |  | < 20 |
| O=C(NC1CCC(C(=O)O)CC1)c1n[nH]cc1NC(=O)c1c(F)cccc1F (stereo unspecified) |  | < 20 |
| O=C(Nc1cccc(CO)c1)c1n[nH]cc1NC(=O)c1c(F)cccc1F |  | < 20 |
| O=C(Nc1ccc(F)cc1)c1n[nH]cc1Nc1ccccn1 |  | < 20 |
| O=C(Nc1ccc(F)cc1)c1n[nH]cc1NC1CCCCC1 |  | < 20 |
| O=C(Nc1c[nH]nc1C(=O)Nc1ccc(F)cc1)c1ccccc1[N+](=O)[O-] |  | < 20 |
| CN1CCN(c2ccc(CNC(=O)c3n[nH]cc3NC(=O)c3c(F)cccc3F)cc2)CC1 |  | < 20 |
| COc1cccc(OC)c1C(=O)Nc1c[nH]nc1C(=O)Nc1ccc(F)cc1 |  | < 20 |
| O=C(Nc1c[nH]nc1C(=O)Nc1ccc(F)cc1)c1ccc2ccccc2n1 |  | < 20 |
| O=C(Nc1cccc(CN2CCOCC2)c1)c1n[nH]cc1NC(=O)c1c(F)cccc1F |  | < 20 |
| O=C(Nc1c[nH]nc1C(=O)Nc1ccc(F)cc1)c1ccc(F)cc1 |  | < 20 |
| CC(C)(C)C1CCC(NC(=O)c2n[nH]cc2NC(=O)c2c(F)cccc2F)CC1 (stereo unspecified) |  | < 20 |
| O=C(NCC1CCCCC1)c1n[nH]cc1NC(=O)c1c(F)cccc1F |  | < 20 |
| COc1ccc(F)c(C(=O)Nc2c[nH]nc2C(=O)Nc2ccc(F)cc2)c1 |  | < 20 |
| O=C(Nc1c[nH]nc1C(=O)Nc1ccc(F)cc1)c1ccccc1O |  | < 20 |
| O=C(NCc1ccccc1F)c1n[nH]cc1NC(=O)c1c(F)cccc1F |  | < 20 |
| O=C(CCc1ccc(Cl)cc1)Nc1c[nH]nc1C(=O)Nc1ccc(F)cc1 |  | < 20 |
| O=C(CS(=O)(=O)c1ccccc1)Nc1c[nH]nc1C(=O)Nc1ccc(F)cc1 |  | < 20 |
| O=C(Cc1c[nH]cn1)Nc1c[nH]nc1C(=O)Nc1ccc(F)cc1 |  | < 20 |
| Cc1cccc(C(=O)Nc2c[nH]nc2C(=O)Nc2ccc(F)cc2)c1 |  | < 20 |

| SMILES | IC50 (CDK2 [1]) [µM] | IC50 (CDK2 [2]) [µM] |
| --- | --- | --- |
| CC(C)(C)C(=O)Nc1c[nH]nc1C(=O)Nc1ccc(F)cc1 |  | < 20 |
| O=C(Nc1cc(F)ccc1OCCN1CCCC1)c1n[nH]cc1NC(=O)c1c(F)cccc1F |  | < 20 |
| CN1CCN(c2ccc(CNC(=O)c3n[nH]cc3-c3ccc(Cl)cc3Cl)cc2)CC1 |  | < 750 |
| O=C(Nc1c[nH]nc1C(=O)Nc1ccc(F)cc1)c1cnc[nH]1 |  | < 20 |
| Cn1cc(CC(=O)Nc2c[nH]nc2C(=O)Nc2ccc(F)cc2)c2ccccc21 |  | < 20 |
| CC(=O)Nc1c(C(=O)Nc2ccc(F)cc2)n[nH]c1C |  | < 20 |
| Cc1ccoc1C(=O)Nc1c[nH]nc1C(=O)Nc1ccc(F)cc1 |  | < 20 |
| O=C(Nc1c[nH]nc1C(=O)Nc1ccc(F)cc1)c1ccc(O)nc1 |  | < 20 |
| O=C(Cc1c[nH]c2ccccc12)Nc1c[nH]nc1C(=O)Nc1ccc(F)cc1 |  | < 20 |
| CC1(C)CC(NC(=O)c2n[nH]cc2NC(=O)c2c(F)cccc2F)CC(C)(C)N1 |  | < 750 |
| O=C(CO)Nc1c[nH]nc1C(=O)Nc1ccc(F)cc1 |  | < 20 |
| CNS(=O)(=O)Cc1ccc(CNC(=O)c2n[nH]cc2-c2ccc(Cl)cc2Cl)cc1 |  | < 20 |
| COc1cccc(C(=O)Nc2c[nH]nc2C(=O)Nc2ccc(F)cc2)c1F |  | < 20 |
| O=C(NC1CCCC1)c1n[nH]cc1NC(=O)c1c(F)cccc1F |  | < 20 |
| CN1CCN(c2c[nH]nc2C(=O)Nc2ccc(F)cc2)CC1 |  | < 20 |
| Cc1ccc(C(=O)Nc2c[nH]nc2C(=O)Nc2ccc(F)cc2)cc1 |  | < 20 |
| CN1CCN(c2ccc(CNC(=O)c3n[nH]cc3-c3cccc(O)c3)cc2)CC1 |  | < 20 |
| Nc1nnnn1CC(=O)Nc1c[nH]nc1C(=O)Nc1ccc(F)cc1 |  | < 20 |
| O=C(Nc1ccc(F)cc1)c1n[nH]cc1NC(=O)C(F)(F)F |  | < 20 |
| O=C(NC1CCN(Cc2ccccc2)CC1)c1n[nH]cc1NC(=O)c1c(F)cccc1F |  | < 20 |
| O=C(CCN1CCOCC1)Nc1c[nH]nc1C(=O)Nc1ccc(F)cc1 |  | < 20 |

Other lines, results leading:

| IC50 (CDK2 [1]) [µM] | IC50 (CDK2 [2]) [µM] | SMILES |
| --- | --- | --- |
|  | < 20 | O=C(Nc1c[nH]nc1C(=O)Nc1ccc(F)cc1)c1ccc2cc[nH]c2c1 |
|  | < 20 | CC(C)Nc1c[nH]nc1C(=O)Nc1ccc(F)cc1 |
|  | < 20 | O=C(Nc1ccc(F)cc1)c1n[nH]cc1NC(=O)C1(O)CC1 |
|  | < 20 | O=C(Nc1ccc(F)cc1)c1n[nH]cc1Nc1nccnc1Cl |
|  | < 20 | O=C(Nc1ccc(F)cc1)c1n[nH]cc1N1CCOCC1 |
|  | < 20 | O=C(NCc1ccccc1Cl)c1n[nH]cc1NC(=O)c1c(F)cccc1F |
|  | < 20 | COc1ccccc1C(=O)Nc1c[nH]nc1C(=O)Nc1ccc(F)cc1 |
|  | < 20 | O=C(Nc1ccccc1)c1n[nH]cc1-c1ccccc1 |
|  | < 20 | CC1(C(=O)Nc2c[nH]nc2C(=O)Nc2ccc(F)cc2)CC1 |
|  | < 20 | O=C(Nc1c[nH]nc1C(=O)Nc1ccc(F)cc1)c1cccc([N+](=O)[O-])c1 |
|  | < 20 | O=C(NCc1ccccn1)c1n[nH]cc1NC(=O)c1c(F)cccc1F |
|  | < 20 | O=C(NCC1CCOCC1)c1n[nH]cc1NC(=O)c1c(F)cccc1F |
|  | < 20 | O=C(Nc1ccc(F)cc1)c1n[nH]cc1Nc1cnccn1 |
|  | < 20 | O=C1CCC(C(=O)Nc2c[nH]nc2C(=O)Nc2ccc(F)cc2)N1 (stereo unspecified) |
|  | < 20 | O=C(Nc1ccc(F)cc1)c1n[nH]cc1NC(=O)c1c(O)cccc1F |
|  | < 20 | O=C(Nc1c[nH]nc1C(=O)Nc1ccc(F)cc1)c1ccccc1F |
|  | < 20 | COc1cccc(C(=O)Nc2c[nH]nc2C(=O)Nc2ccc(F)cc2)c1 |
|  | < 20 | O=C(Nc1c[nH]nc1C(=O)Nc1ccc(F)cc1)c1ccccc1OCCN1CCCC1 |
|  | < 20 | CC(C)(C)OC(=O)N1CCCC(CNC(=O)c2n[nH]cc2NC(=O)c2c(F)cccc2F)C1 (stereo unspecified) |
|  | < 20 | Cc1ccccc1C(=O)Nc1c[nH]nc1C(=O)Nc1ccc(F)cc1 |
|  | < 20 | CC(=O)N1CCC(C(=O)Nc2c[nH]nc2C(=O)Nc2ccc(F)cc2)CC1 |
|  | < 20 | CN(c1c[nH]nc1C(=O)Nc1ccc(F)cc1)C1CCCCC1 |

| IC50 (CDK2 [1]) [µM] | IC50 (CDK2 [2]) [µM] | SMILES |
| --- | --- | --- |
|  | < 20 | O=C(NCc1ccccc1)c1n[nH]cc1NC(=O)c1c(F)cccc1F |
|  | < 20 | O=C(NCCN1CCOCC1)c1n[nH]cc1NC(=O)c1c(F)cccc1F |
|  | < 20 | COc1ccc(CNC(=O)c2n[nH]cc2NC(=O)c2c(F)cccc2F)cc1 |
|  | < 20 | O=C(Nc1c[nH]nc1C(=O)Nc1ccc(F)cc1)c1ccsc1 |
|  | < 20 | O=C(NCC1CCCNC1)c1n[nH]cc1NC(=O)c1c(F)cccc1F (stereo unspecified) |
|  | < 20 | CN1CCC(NC(=O)c2n[nH]cc2NC(=O)c2c(F)cccc2F)CC1 |
|  | < 20 | O=C(Nc1c[nH]nc1C(=O)Nc1ccc(F)cc1)c1cc[nH]c1 |
|  | < 20 | O=C(Nc1c[nH]nc1C(=O)Nc1ccc(F)cc1)c1ccc([N+](=O)[O-])cc1 |
|  | < 20 | NC(=O)c1n[nH]cc1NC(=O)c1c(F)cccc1F |
|  | < 20 | O=C(NCc1c(F)cccc1F)c1n[nH]cc1NC(=O)c1c(F)cccc1F |
|  | < 20 | Cc1onc(-c2ccccc2)c1C(=O)Nc1c[nH]nc1C(=O)Nc1ccc(F)cc1 |
|  | < 20 | COC(=O)c1cccc(NC(=O)c2n[nH]cc2NC(=O)c2c(F)cccc2F)c1N |
|  | < 20 | CC1CCCC(C)N1CCNC(=O)c1n[nH]cc1NC(=O)c1c(F)cccc1F (stereo unspecified) |
|  | < 20 | O=C(Nc1c[nH]nc1C(=O)Nc1ccc(F)cc1)c1cccc(F)c1 |
|  | < 20 | O=C(NC1CCOCC1)c1n[nH]cc1NC(=O)c1c(F)cccc1F |
|  | < 20 | O=C(Nc1c[nH]nc1C(=O)Nc1ccc(F)cc1)c1ccoc1 |
|  | < 20 | O=C(CCc1nnc[nH]1)Nc1c[nH]nc1C(=O)Nc1ccc(F)cc1 |
|  | < 20 | O=C(Nc1c[nH]nc1C(=O)Nc1ccc(F)cc1)c1ccc(CO)cc1 |
|  | < 20 | Cc1[nH]nc(C(=O)Nc2ccc(F)cc2)c1NC(=O)c1c(F)cccc1F |
|  | < 20 | O=C(NC1CCN(Cc2ccccc2)C1)c1n[nH]cc1NC(=O)c1c(F)cccc1F (stereo unspecified) |
|  | < 20 | Cc1sccc1C(=O)Nc1c[nH]nc1C(=O)Nc1ccc(F)cc1 |
|  | < 20 | CC(CO)Nc1c[nH]nc1C(=O)Nc1ccc(F)cc1 (stereo unspecified) |
